Experimental data as given in article PMC6440464 (PeerJ, 2019).
“And” between values parts separate entries of the source, which are not always exact repeats. Equal entries are not always repeated. Where two headings read alike, the source gives them in different places.

Experiment: Pharmacokinetics study after separate oral administration in rats (HPLC-MS of plasma)
Assay type: in vivo, Sprague-Dawley rats
Conditions: for half-life: read-out: t1/2z
Procedure: A total of 15 SPF Sprague-Dawley rats (SD, male, 190–210 g) were provided by Sino-British Sippr/BK Lab Animal Company Ltd. (Shanghai, China). The rats were kept in standard conditions (22–26 °C; 40–60% relative humidity; 12 h light/dark cycle). Throughout the rearing period, the animals had access to food and water ad libitum. Animal experiments were conducted in accordance with the standard ethical guidelines of the Laboratory Animal Management Committee of Jiangsu Province (SYXK (SU) 2016-0011).
Following 1 week of adaptation, the rats were fasted for about 12 h before dosing, with free access to water. […] After administration of the first dose, blood samples were taken from the retro-orbital vein at 0, 5, 15, 30, 60, 90, 120, 180, 240, 360, 480, and 1,440 min and collected in heparinized tubes. The samples were centrifuged at 3,500 rpm for 10 min at 4 °C and the plasma was stored at −80 °C until analysis.
An Agilent 1,200 series HPLC system (Agilent Technologies, Waldbronn, Germany) equipped with a quaternary pump on-line degasser, auto-sampler and column oven, and an SL G1946D quadruple mass spectrometer (Agilent Technologies, Santa Clara, CA, USA) equipped with an electrospray ionization (ESI) source, were used for separation and detection. Data were acquired and analyzed using Agilent ChemStation Software Version A.01.00 (Agilent Technologies, Santa Clara, CA, USA).
The separation was carried out with an Amethyst C18-H column (150 × 4.6 mm, 5 μm, Sepax Technologies, Newark, DE, USA) with a guard column SB-C18 (10 × 4.6 mm, 5 μm, Phenomenex Technologies, Torrance, USA) at a constant temperature of 25 °C.
The mass spectra were acquired using ESI interfaced to a single quadrupole mass spectrometer. The ionization conditions were as follows: drying gas (N2) flow rate of 11 L/min, drying gas temperature of 350 °C, nebulizing gas (N2) pressure of 35 psi, capillary voltage of 3,500 V, quad temperature of 100 °C, and fragment voltage of 110 V. A series of m/z were monitored using a timed program according to the retention times and characteristic ions for the corresponding HPLC-MS peak obtained by scanning from m/z 100–1,000 in the standard sample.
Briefly, an aliquot of plasma sample (100 μL) was spiked with 5% formic acid (10 μL) in centrifuge tube. Subsequently, hydrochloric acid (2 mol/L, 10 μL) and IS solution (960.00 ng/mL, 20 μL) were added. Then ethyl acetate/n-butyl alcohol (1:1 v/v; 1,000 μL) was used to extract the components. The samples were then homogenized by vortex mixing and centrifuged for 10 min at 14,000 rpm. After centrifugation, 800 μL of supernatant was transferred to another centrifuge tube and the sample was evaporated to dryness. The residues were dissolved in 100 μL of methanol and centrifuged for 10 min at 12,000 rpm. 50 μL of the supernatant was transferred to the vial and an aliquot of 5 μL was injected into the HPLC-MS system for analysis.
DAS 2.0 (Chinese Pharmacological Association, Shanghai, China) was used to calculate the pharmacokinetic parameters using the non-compartment model, including the area under curve (AUC), mean residence time (MRT), half-life ( t1/2z), clearance rate (CL), maximum plasma concentration (Cmax), and time (Tmax). All results are expressed as mean ± standard deviation (SD). One way analysis of variance followed by […] was used for comparison of different groups using Graph pad prism 5 software. A p-value of <0.05 was considered statistically significant.

[1] = IQ group (oral IQ 50 mg/kg), rat plasma, labelled substance = analyte, individual rats No1-No5

In the case of O=c1c(O[C@@H]2O[C@H](CO)[C@@H](O)[C@H](O)[C@H]2O)c(-c2ccc(O)c(O)c2)oc2cc(O)cc(O)c12 [IQ, Isoquercitrin], the Plasma concentrations (IQ group (oral IQ 50 mg/kg), 5 min, individual rats NO. 1-5) is reported as 0.0934 µg/mL and 0.0774 µg/mL and 0.0493 µg/mL and 0.0335 µg/mL and 0.1108 µg/mL, the Plasma concentrations (IQ group (oral IQ 50 mg/kg), 15 min, individual rats NO. 1-5) is reported as 0.3981 µg/mL and 0.2105 µg/mL and 0.1113 µg/mL and 0.0464 µg/mL and 0.3803 µg/mL and the Plasma concentrations (IQ group (oral IQ 50 mg/kg), 30 min, individual rats NO. 1-5) is reported as 0.3658 µg/mL and 0.4136 µg/mL and 0.1507 µg/mL and 0.3866 µg/mL and 0.3886 µg/mL. The Plasma concentrations (IQ group (oral IQ 50 mg/kg), 60 min, individual rats NO. 1-5) was 0.1335 µg/mL and 0.1563 µg/mL and 0.1140 µg/mL and 0.0299 µg/mL and 0.2027 µg/mL, the Plasma concentrations (IQ group (oral IQ 50 mg/kg), 90 min, individual rats NO. 1-5) was 0.0372 µg/mL and 0.1114 µg/mL and 0.0310 µg/mL and 0.0260 µg/mL and 0.1543 µg/mL and the Plasma concentrations (IQ group (oral IQ 50 mg/kg), 120 min, individual rats NO. 1-5) was 0.0000 μg/mL (3×) and 0.0534 μg/mL and 0.0884 μg/mL. For the same molecule, the Plasma concentrations (IQ group (oral IQ 50 mg/kg), 180 min, individual rats NO. 1-5) was 0.0000 µg/mL, the Plasma concentrations (IQ group (oral IQ 50 mg/kg), 240 min, individual rats NO. 1-5) was 0.0000 µg/mL and the Plasma concentrations (IQ group (oral IQ 50 mg/kg), 360 min, individual rats NO. 1-5) was 0.0000 µg/mL. The Plasma concentrations (IQ group (oral IQ 50 mg/kg), 480 min, individual rats NO. 1-5) was 0.0000 µg/mL, the Plasma concentrations (IQ group (oral IQ 50 mg/kg), 1440 min, individual rats NO. 1-5) was 0.0000 µg/mL and the “AUC(0-t)” value [1] was 307.8 ng·h/mL and 355.8 ng·h/mL and 150.6 ng·h/mL and 180.27 ng·h/mL and 439.42 ng·h/mL. For the same molecule, the CLz/F [1] was 2565 mL/min/kg and 2104 mL/min/kg and 4792 mL/min/kg and 3572 mL/min/kg and 1528 mL/min/kg, the Cmax [1] was 398.1 ng/mL and 413.6 ng/mL and 150.7 ng/mL and 386.6 ng/mL and 388.6 ng/mL and the “MRT(0-t)” value [1] was 46.827 min and 41.112 min and 33.266 min and 48.488 min. For the same molecule, the Tmax [1] was 30 min, the t1/2z [1] was 18.181 min and 30.631 min and 26.313 min and 87.922 min and 49.884 min and the “Detection in rat plasma” value (IQ group: oral IQ 50 mg/kg) was “could be detected in rat plasma”. The “Time until which the AUC could be accessed” value (IQ group: oral IQ 50 mg/kg) was 90 to 120 min, the CL (IQ group: oral IQ 50 mg/kg, rat plasma, mean ± SD, n = 5) was 2910 ± 1290 mL/min/kg and the concentration at 180 min (male, Sprague-Dawley, rat, plasma, oral, 50 mg/kg, IQ group (oral IQ 50 mg/kg), 180 min, individual rats NO. 1-5, read-out: Plasma concentrations) was 0 ng/mL. It also gave a concentration at 240 min (male, Sprague-Dawley, rat, plasma, oral, 50 mg/kg, IQ group (oral IQ 50 mg/kg), 240 min, individual rats NO. 1-5, read-out: Plasma concentrations) of 0 ng/mL, a concentration at 360 min (male, Sprague-Dawley, rat, plasma, oral, 50 mg/kg, IQ group (oral IQ 50 mg/kg), 360 min, individual rats NO. 1-5, read-out: Plasma concentrations) of 0 ng/mL and a concentration at 480 min (male, Sprague-Dawley, rat, plasma, oral, 50 mg/kg, IQ group (oral IQ 50 mg/kg), 480 min, individual rats NO. 1-5, read-out: Plasma concentrations) of 0 ng/mL. The concentration at 1440 min (male, Sprague-Dawley, rat, plasma, oral, 50 mg/kg, IQ group (oral IQ 50 mg/kg), 1440 min, individual rats NO. 1-5, read-out: Plasma concentrations) was 0 ng/mL, the MRT last (male, Sprague-Dawley, rat, plasma, po, 50 mg/kg, IQ group (oral IQ 50 mg/kg), rat plasma, labelled substance = analyte, individual rats No1-No5, read-out: MRT(0-t) (converted)) was 33.3 min and the Tmax (male, Sprague-Dawley, rat, plasma, po, 50 mg/kg, IQ group (oral IQ 50 mg/kg), rat plasma, labelled substance = analyte, individual rats No1-No5, read-out: Tmax (converted)) was 15 min. The AUC(0-t) (male, Sprague-Dawley, rat, plasma, po, 50 mg/kg, IQ group (oral IQ 50 mg/kg), rat plasma, labelled substance = analyte, mean of 5 rats, read-out: AUC(0-t) (converted)) was 287 ng·h/mL, the CL/F (male, Sprague-Dawley, rat, plasma, po, 50 mg/kg, IQ group (oral IQ 50 mg/kg), rat plasma, labelled substance = analyte, mean of 5 rats, read-out: CLz/F) was 2910 mL/min/kg and the Cmax (male, Sprague-Dawley, rat, plasma, po, 50 mg/kg, IQ group (oral IQ 50 mg/kg), rat plasma, labelled substance = analyte, mean of 5 rats, read-out: Cmax) was 348 ng/mL. The MRT last (male, Sprague-Dawley, rat, plasma, po, 50 mg/kg, IQ group (oral IQ 50 mg/kg), rat plasma, labelled substance = analyte, mean of 5 rats, read-out: MRT(0-t) (converted)) was 40.6 min, the Tmax (male, Sprague-Dawley, rat, plasma, po, 50 mg/kg, IQ group (oral IQ 50 mg/kg), rat plasma, labelled substance = analyte, mean of 5 rats, read-out: Tmax (converted)) was 27 min and the half-life (male, Sprague-Dawley, rat, plasma, po, 50 mg/kg, IQ group (oral IQ 50 mg/kg), rat plasma, labelled substance = analyte, mean of 5 rats) was 42.6 min. It also gave an AUC(0-t) (male, Sprague-Dawley, rat, plasma, po, 50 mg/kg, IQ group: oral IQ 50 mg/kg, rat plasma, mean ± SD, n = 5, read-out: AUC0−t (converted)) of 287 ng·h/mL, a Cmax (male, Sprague-Dawley, rat, plasma, po, 50 mg/kg, IQ group: oral IQ 50 mg/kg, rat plasma, mean ± SD, n = 5, read-out: Cmax) of 350 ± 110 ng/mL and an MRT last (male, Sprague-Dawley, rat, plasma, po, 50 mg/kg, IQ group: oral IQ 50 mg/kg, rat plasma, mean ± SD, n = 5, read-out: MRT0−t (converted)) of 40.6 min. The Tmax (male, Sprague-Dawley, rat, plasma, po, 50 mg/kg, IQ group: oral IQ 50 mg/kg, rat plasma, mean ± SD, n = 5, read-out: Tmax (converted)) was 27 min and the half-life (male, Sprague-Dawley, rat, plasma, po, 50 mg/kg, IQ group: oral IQ 50 mg/kg, rat plasma, mean ± SD, n = 5) was 42.6 ± 27.9 min.
